Ends that are not written are not given here.
Experiments:
Format in all cases: biochemical, human
[1] = system: Lovenox ® Activity in Blood from Patients Treated with Lovenox ®; assay: Neutralizing Lovenox activity in blood from patients treated with Lovenox (anti-Factor Xa assay); conditions: Peptide 12 μg/ml
Method in brief: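 Blood came from consenting volunteers already on Lovenox® therapy. Neutralizing peptides were tested as a dose response from 1–60 μg/ml. Each point is mean ± SD of triplicate analyses on one patient's blood sample.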

[2] = system: anti-Factor Xa Activity of the Low Molecular Weight Heparin Lovenox ®; assay: Anti-Factor Xa assay (Stachrom Heparin kit): neutralization of Lovenox in citrate or plasma in vitro; conditions: for Lovenox ® Neutralized: Lovenox 0.7 U/ml; for anti-LMWH effect in citrate compared with plasma: Table 2A
Method in brief: (§1)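 Chromogenic anti-Factor Xa kit run with UFH, enoxaparin (Lovenox) or danaparoid (Orgaran) in 0.32% citrate or citrated plasma from three volunteers. Heparin/ATIII complex formed, peptide added, then Factor Xa and dye substrate; absorbance at 405 nm, inversely proportional to remaining anti-Factor Xa activity.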

[3] = system: anti-Factor Xa Activity of Unfractionated Heparin; assay: Anti-Factor Xa assay: neutralization of unfractionated heparin in citrate or plasma in vitro; conditions: UFH 0.7 U/ml
Method in brief: as §1

[4] = blood of Lovenox-treated Patient Number 1
[5] = blood of Lovenox-treated Patient Number 2
[6] = blood of Lovenox-treated Patient Number 3
[7] = blood of Lovenox-treated Patient Number 4
[8] = blood of Lovenox-treated Patient Number 5
[9] = blood of Lovenox-treated Patient Number 8
[10] = blood of Lovenox-treated Patient Number 9
[11] = blood of Lovenox-treated Patient Number 10
[12] = blood of Lovenox-treated Patient Number 11

With “ARKKAAKAARKKAAKAARKKAAKAARKKAAKA [(ARKKAAKA)4]” the “Lovenox ® Neutralized” value [1, 4] was 0.116 U/ml, the “Lovenox ® Neutralized” value [1, 5] was 0.073 U/ml and the “Lovenox ® Neutralized” value [1, 6] was 0.105 U/ml. For the same sequence, the “Lovenox ® Neutralized” value [1, 7] was 0.225 U/ml, the “Lovenox ® Neutralized” value [1, 8] was 0.194 U/ml and the “Lovenox ® Neutralized” value [1, 9] was 0.289 U/ml. The “Lovenox ® Neutralized” value [1, 10] was 0.283 U/ml, the “Lovenox ® Neutralized” value [1, 11] was 0.194 U/ml and the “Lovenox ® Neutralized” value [1, 12] was 0.135 U/ml. The “Lovenox ® Neutralized” value ([2]; 1 μg/ml Peptide, A Plasma) was 0.020 ± 0.016 U/ml, the “Lovenox ® Neutralized” value ([2]; 1 μg/ml Peptide, B Plasma) was 0.031 ± 0.015 U/ml and the “Lovenox ® Neutralized” value ([2]; 1 μg/ml Peptide, C Plasma) was 0.059 ± 0.029 U/ml. The “Lovenox ® Neutralized” value ([2]; 1 μg/ml Peptide, Citrate) was 0.141 ± 0.051 U/ml, the “Lovenox ® Neutralized” value ([2]; 6 μg/ml Peptide, A Plasma) was 0.184 ± 0.038 U/ml and the “Lovenox ® Neutralized” value ([2]; 6 μg/ml Peptide, B Plasma) was 0.178 ± 0.022 U/ml. The “Lovenox ® Neutralized” value ([2]; 6 μg/ml Peptide, C Plasma) was 0.252 ± 0.024 U/ml, the “Lovenox ® Neutralized” value ([2]; 6 μg/ml Peptide, Citrate) was 0.376 ± 0.019 U/ml and the “Lovenox ® Neutralized” value ([2]; 12 μg/ml Peptide, A Plasma) was 0.287 ± 0.058 U/ml. For the same sequence, the “Lovenox ® Neutralized” value ([2]; 12 μg/ml Peptide, B Plasma) was 0.328 ± 0.041 U/ml, the “Lovenox ® Neutralized” value ([2]; 12 μg/ml Peptide, C Plasma) was 0.325 ± 0.030 U/ml and the “Lovenox ® Neutralized” value ([2]; 12 μg/ml Peptide, Citrate) was 0.473 ± 0.039 U/ml. For the same sequence, the “Lovenox ® Neutralized” value ([2]; 60 μg/ml Peptide, A Plasma) was 0.343 ± 0.090 U/ml, the “Lovenox ® Neutralized” value ([2]; 60 μg/ml Peptide, B Plasma) was 0.488 ± 0.012 U/ml and the “Lovenox ® Neutralized” value ([2]; 60 μg/ml Peptide, C Plasma) was 0.495 ± 0.032 U/ml. For the same sequence, the “Lovenox ® Neutralized” value ([2]; 60 μg/ml Peptide, Citrate) was 0.515 ± 0.016 U/ml, the “Lovenox ® Neutralized” value ([2]; 120 μg/ml Peptide, A Plasma) was 0.601 ± 0.052 U/ml and the “Lovenox ® Neutralized” value ([2]; 120 μg/ml Peptide, B Plasma) was 0.541 ± 0.065 U/ml. For the same sequence, the “Lovenox ® Neutralized” value ([2]; 120 μg/ml Peptide, C Plasma) was 0.570 ± 0.029 U/ml, the “Lovenox ® Neutralized” value ([2]; 120 μg/ml Peptide, Citrate) was 0.509 ± 0.079 U/ml and the “anti-LMWH effect in citrate compared with plasma” value [2] was “greater anti-LMWH effect in citrate than in plasma”. The “Lovenox/LMWH neutralization compared with protamine” value ([2]; low concentrations, in the presence of plasma) was “more effective than protamine”, the “Unfractionated Heparin Neutralized” value ([3]; 1 μg/ml Peptide, A Plasma) was 0.069 ± 0.023 U/ml and the “Unfractionated Heparin Neutralized” value ([3]; 1 μg/ml Peptide, B Plasma) was 0.124 ± 0.047 U/ml. The “Unfractionated Heparin Neutralized” value ([3]; 1 μg/ml Peptide, C Plasma) was 0.076 ± 0.014 U/ml, the “Unfractionated Heparin Neutralized” value ([3]; 1 μg/ml Peptide, Citrate) was 0.056 ± 0.019 U/ml and the “Unfractionated Heparin Neutralized” value ([3]; 6 μg/ml Peptide, A Plasma) was 0.334 ± 0.016 U/ml. The “Unfractionated Heparin Neutralized” value ([3]; 6 μg/ml Peptide, B Plasma) was 0.361 ± 0.038 U/ml, the “Unfractionated Heparin Neutralized” value ([3]; 6 μg/ml Peptide, C Plasma) was 0.397 ± 0.004 U/ml and the “Unfractionated Heparin Neutralized” value ([3]; 6 μg/ml Peptide, Citrate) was 0.423 ± 0.014 U/ml. The “Unfractionated Heparin Neutralized” value ([3]; 12 μg/ml Peptide, A Plasma) was 0.412 ± 0.010 U/ml, the “Unfractionated Heparin Neutralized” value ([3]; 12 μg/ml Peptide, B Plasma) was 0.395 ± 0.012 U/ml and the “Unfractionated Heparin Neutralized” value ([3]; 12 μg/ml Peptide, C Plasma) was 0.396 ± 0.018 U/ml. For the same sequence, the “Unfractionated Heparin Neutralized” value ([3]; 12 μg/ml Peptide, Citrate) was 0.370 ± 0.020 U/ml, the “Unfractionated Heparin Neutralized” value ([3]; 60 μg/ml Peptide, A Plasma) was 0.389 ± 0.018 U/ml and the “Unfractionated Heparin Neutralized” value ([3]; 60 μg/ml Peptide, B Plasma) was 0.442 ± 0.056 U/ml. The “Unfractionated Heparin Neutralized” value ([3]; 60 μg/ml Peptide, C Plasma) was 0.401 ± 0.012 U/ml, the “Unfractionated Heparin Neutralized” value ([3]; 60 μg/ml Peptide, Citrate) was 0.378 ± 0.023 U/ml and the “Unfractionated Heparin Neutralized” value ([3]; 120 μg/ml Peptide, A Plasma) was 0.364 ± 0.032 U/ml. For the same sequence, the “Unfractionated Heparin Neutralized” value ([3]; 120 μg/ml Peptide, B Plasma) was 0.392 ± 0.075 U/ml, the “Unfractionated Heparin Neutralized” value ([3]; 120 μg/ml Peptide, C Plasma) was 0.374 ± 0.020 U/ml and the “Unfractionated Heparin Neutralized” value ([3]; 120 μg/ml Peptide, Citrate) was 0.361 ± 0.028 U/ml.
In the case of “ARKKAAKAARKKAAKAARKKAAKAVLVLVL [(ARKKAAKA)3VLVLVL]”, the “Lovenox ® Neutralized” value [1, 4] is reported as 0.016 U/ml, the “Lovenox ® Neutralized” value [1, 5] is reported as 0.030 U/ml and the “Lovenox ® Neutralized” value [1, 6] is reported as 0.043 U/ml. The “Lovenox ® Neutralized” value [1, 7] was 0.122 U/ml, the “Lovenox ® Neutralized” value [1, 8] was 0.109 U/ml and the “Lovenox ® Neutralized” value [1, 9] was 0.104 U/ml. The “Lovenox ® Neutralized” value [1, 10] was 0.187 U/ml, the “Lovenox ® Neutralized” value [1, 11] was 0.133 U/ml and the “Lovenox ® Neutralized” value [1, 12] was 0.142 U/ml. The “Lovenox ® Neutralized” value ([2]; 1 μg/ml Peptide, A Plasma) was 0.070 ± .036 U/ml, the “Lovenox ® Neutralized” value ([2]; 1 μg/ml Peptide, B Plasma) was 0.030 ± 0.020 U/ml and the “Lovenox ® Neutralized” value ([2]; 1 μg/ml Peptide, C Plasma) was 0.005 + 0.007 U/ml. For the same sequence, the “Lovenox ® Neutralized” value ([2]; 1 μg/ml Peptide, Citrate) was 0.064 ± .046 U/ml, the “Lovenox ® Neutralized” value ([2]; 6 μg/ml Peptide, A Plasma) was 0.250 ± .012 U/ml and the “Lovenox ® Neutralized” value ([2]; 6 μg/ml Peptide, B Plasma) was 0.234 ± 0.032 U/ml. For the same sequence, the “Lovenox ® Neutralized” value ([2]; 6 μg/ml Peptide, C Plasma) was 0.153 ± 0.031 U/ml, the “Lovenox ® Neutralized” value ([2]; 6 μg/ml Peptide, Citrate) was 0.298 ± .049 U/ml and the “Lovenox ® Neutralized” value ([2]; 12 μg/ml Peptide, A Plasma) was 0.241 ± .076 U/ml. For the same sequence, the “Lovenox ® Neutralized” value ([2]; 12 μg/ml Peptide, B Plasma) was 0.247 ± 0.031 U/ml, the “Lovenox ® Neutralized” value ([2]; 12 μg/ml Peptide, C Plasma) was 0.276 ± 0.033 U/ml and the “Lovenox ® Neutralized” value ([2]; 12 μg/ml Peptide, Citrate) was 0.457 ± .016 U/ml. The “Lovenox ® Neutralized” value ([2]; 60 μg/ml Peptide, A Plasma) was 0.453 ± .029 U/ml, the “Lovenox ® Neutralized” value ([2]; 60 μg/ml Peptide, B Plasma) was 0.474 ± 0.011 U/ml and the “Lovenox ® Neutralized” value ([2]; 60 μg/ml Peptide, C Plasma) was 0.491 ± 0.029 U/ml. The “Lovenox ® Neutralized” value ([2]; 60 μg/ml Peptide, Citrate) was 0.479 ± .006 U/ml, the “Lovenox ® Neutralized” value ([2]; 120 μg/ml Peptide, A Plasma) was 0.457 ± .010 U/ml and the “Lovenox ® Neutralized” value ([2]; 120 μg/ml Peptide, B Plasma) was 0.496 ± 0.028 U/ml. For the same sequence, the “Lovenox ® Neutralized” value ([2]; 120 μg/ml Peptide, C Plasma) was 0.471 ± 0.013 U/ml, the “Lovenox ® Neutralized” value ([2]; 120 μg/ml Peptide, Citrate) was 0.516 ± .065 U/ml and the “anti-LMWH effect in citrate compared with plasma” value [2] was “greater anti-LMWH effect in citrate than in plasma”. The “Unfractionated Heparin Neutralized” value ([3]; 1 μg/ml Peptide, A Plasma) was 0.249 ± 0.129 U/ml, the “Unfractionated Heparin Neutralized” value ([3]; 1 μg/ml Peptide, B Plasma) was 0.142 ± 0.040 U/ml and the “Unfractionated Heparin Neutralized” value ([3]; 1 μg/ml Peptide, C Plasma) was 0.114 ± 0.056 U/ml. The “Unfractionated Heparin Neutralized” value ([3]; 1 μg/ml Peptide, Citrate) was 0.150 ± 0.023 U/ml, the “Unfractionated Heparin Neutralized” value ([3]; 6 μg/ml Peptide, A Plasma) was 0.667 ± 0.019 U/ml and the “Unfractionated Heparin Neutralized” value ([3]; 6 μg/ml Peptide, B Plasma) was 0.598 ± 0.016 U/ml. For the same sequence, the “Unfractionated Heparin Neutralized” value ([3]; 6 μg/ml Peptide, C Plasma) was 0.572 ± 0.018 U/ml, the “Unfractionated Heparin Neutralized” value ([3]; 6 μg/ml Peptide, Citrate) was 0.576 ± 0.060 U/ml and the “Unfractionated Heparin Neutralized” value ([3]; 12 μg/ml Peptide, A Plasma) was 0.570 ± 0.119 U/ml. The “Unfractionated Heparin Neutralized” value ([3]; 12 μg/ml Peptide, B Plasma) was 0.585 ± 0.005 U/ml, the “Unfractionated Heparin Neutralized” value ([3]; 12 μg/ml Peptide, C Plasma) was 0.575 ± 0.013 U/ml and the “Unfractionated Heparin Neutralized” value ([3]; 12 μg/ml Peptide, Citrate) was 0.595 ± 0.021 U/ml.

From patent publication US7259140B2, “Heparin-binding peptides and uses thereof” (Thomas Jefferson University, priority 2003, dated 2007)
